≈ marks a conversion by molar mass, not a printed value. Square brackets hold non-standard residues; d marks the D form. Ends that are not written are not given here. Dbu = diaminobutyric acid (X in this publication); code O = not defined here; Orn = NCCC[C@H](N)C(=O)O
What was measured:
[1] = tested on: ME-180 (human cervical carcinoma) cells; assay: Cytotoxicity, MTT assay; assay type: cell-based; settings: ME-180 cells
Experimental: Native protegrin PG-1 (SEQ ID NO:1) and melittin (SEQ ID NO:19) were tested as controls.

human red blood cells = assay: Hemolytic activity against human red blood cells; settings: FIG. 1; compared with native PG-1 and melittin
Experimental: In the assay, various concentrations of peptides were incubated with human red blood cells and the percentage of hemolysis determined.

[2] = tested on: Pseudomonas aruginosa (Psa); assay: MIC, antimicrobial activity against Psa; assay type: cell-based
Excerpt: (§1) Methods were as described in WO 97/18826.

[3] = tested on: methicillin resistant Staphylococcus aureus (MRSA); assay: MIC, antimicrobial activity against MRSA; assay type: cell-based
Excerpt: as §1

[4] = tested on: vancomycin resistant Enterococcus faecium (VREF); assay: MIC, antimicrobial activity against VREF; assay type: cell-based
Excerpt: as §1

[5] = tested on: Candida albicans (C. alb); assay: MIC, antimicrobial activity against C. alb; assay type: cell-based
Excerpt: as §1

E. coli [6] = assay: In vitro serum availability, MCZ assay, indicator bacteria E. coli; assay type: cell-based; settings: 50 μg/mL peptide; 90% serum as diluent; activity in serum vs same peptide without serum (100%)
Experimental: (§2) Peptide was tested at 50 μg/ml against two different strains of indicator bacteria (E. coli and VRE) both in the presence and absence of serum. For experiments performed in the presence of serum, 90% serum was used as the peptide diluent. Native PG-1 (SEQ ID NO:1) was tested as a control.
(§3) Percent availability refers to the activity of the indicated peptide in serum as compared with the activity of the same peptide in the absence of serum (assigned a value of 100%).

VRE = assay: In vitro serum availability, MCZ assay, indicator bacteria VRE; assay type: cell-based, vancomycin-resistant Enterococcus faecium or faecalis; settings: 50 μg/mL peptide; 90% serum as diluent; activity in serum vs same peptide without serum (100%)
Experimental: as §2, §3

E. coli [7] = assay: Antimicrobial activity against E. coli in borate buffered saline with and without lysozyme; assay type: cell-based; settings: presence vs absence of lysozyme
Excerpt: The protegrins of the invention retain their activity against microbes in the context of borate solutions that are commonly used in eye care products. […] This effect was more pronounced when the PG-3 was autoclaved and similar patterns were obtained for both the free-acid and the amide forms. Accordingly, the protegrins may be used as preservatives in such compositions or as antimicrobials for treatment of eye infections, such as conjunctivitis and corneal ulcers.

Compound | EC50, MTT assay [1] [µg/mL] | hemolytic activity against human red blood cells (in words) (human red blood cells) | MIC Psa [2] [μ g/ml] | MIC MRSA [3] [μ g/ml] | MIC VREF [4] [μ g/ml] | MIC C. alb. [5] [μ g/ml] | In Vitro Serum Availability (%) E. coli (E. coli [6]) [%] | In Vitro Serum Availability (%) VRE (VRE) [%] | effect of lysozyme on antimicrobial effectiveness (E. coli [7]) | cytotoxicity compared with native PG-1 and melittin (in words) ([1]; MTT assay)
CC[C@H](C)[C@H](NC(=O)CN)C(=O)NCC(=O)N[C@@H](C)C(=O)N[C@H](C(=O)N[C@@H](CC(C)C)C(=O)N[C@@H](CCCCN)C(=O)N[C@H](C(=O)N[C@@H](CC(C)C)C(=O)N[C@H](C(=O)N[C@H](C(=O)NCC(=O)N[C@@H](CC(C)C)C(=O)N1CCC[C@H]1C(=O)N[C@@H](C)C(=O)N[C@@H](CC(C)C)C(=O)N[C@H](C(=O)N[C@@H](CO)C(=O)N[C@@H](Cc1c[nH]c2ccccc12)C(=O)N[C@H](C(=O)N[C@@H](CCCCN)C(=O)N[C@@H](CCCNC(=N)N)C(=O)N[C@@H](CCCCN)C(=O)N[C@@H](CCCNC(=N)N)C(=O)N[C@@H](CCC(N)=O)C(=O)N[C@@H](CCC(N)=O)C(N)=O)[C@@H](C)CC)[C@@H](C)CC)[C@@H](C)O)[C@@H](C)O)C(C)C)C(C)C [Melittin, reference compound] | 8.0 (≈ 2.81 µM) |  |  |  |  |  |  |  |  | 
CC(C)C[C@H](NC(=O)[C@H](CCCNC(=N)N)NC(=O)CNC(=O)CNC(=O)[C@@H](N)CCCNC(=N)N)C(=O)N[C@H]1CSSC[C@@H](C(=O)N[C@H](C(=O)NCC(=O)N[C@@H](CCCNC(=N)N)C(N)=O)C(C)C)NC(=O)[C@H](C(C)C)NC(=O)[C@@H]2CSSC[C@H](NC(=O)[C@H](Cc3ccc(O)cc3)NC1=O)C(=O)N[C@@H](CCCNC(=N)N)C(=O)N[C@@H](CCCNC(=N)N)C(=O)N[C@@H](CCCNC(=N)N)C(=O)N[C@@H](Cc1ccccc1)C(=O)N2 [Native PG-1, RGGRLCYCRRRFCVCVGR-NH2, reference compound] |  | hemolytic against human red blood cells |  |  |  |  |  |  |  | 
JLCFCOOOFCTCV-NH2 |  |  | 4 | 64 | 2 | 64 |  |  |  | 
JTCFCOOOFCTCV-NH2 |  |  | 16 | > 128 | 32 | > 128 |  |  |  | 
JTCYCOOOFCVCV-NH2 |  |  | 2 | 32 | 6.67 | > 64 |  |  |  | 
OGGOTCYCOOOFCVCVGO-NH2 ([code O]GG[code O]TCYC[code O][code O][code O]FCVCVG[code O]-NH2; cysteine pairing not given here; reading uncertain; also: printed as OGGOTCYCOOOFCVCVGO-NH2) |  |  | 1 | > 64 | 3.3 | > 64 | 40 | 9 |  | 
OTOLCYCOZOFCVCV-NH2 |  |  | 2 | 64 | 8 | > 64 | 30 | 8 |  | 
OTTLCYCOGOFCVCVGO-NH2 ([Orn]TTLCYC[Orn]G[Orn]FCVCVG[Orn]-NH2; cysteine pairing not given here) |  |  | 0.5 | 32 | 1 | 32 | 10 | 3 |  | 
PG-3: naturally-occurring protegrin from porcine leukocytes; free-acid and amide forms (RGGGLCYCRRRFCVCVGR; ends and bridges not checked; also: free acid or amide forms; UniProt P32196 131-148, looked up) |  |  |  |  |  |  |  |  | the presence of lysozyme enhanced the effectiveness | 
RGGRLCTCRRRFCVCVGR-NH2 (ends and bridges not checked) [[^7 T]PG-1] | 50.4 | decreased hemolytic activity |  |  |  |  |  |  |  | 
RGGRLCYCRRRFCTCVGR-NH2 (ends and bridges not checked) [[^14 T]PG-1] | 154.8 | decreased hemolytic activity |  |  |  |  |  |  |  | less cytotoxic than native PG-1 and the control peptide melittin
RGGRLCYCRRRFCVCTGR-NH2 (ends and bridges not checked) [[^16 T]PG-1] | 122.6 | decreased hemolytic activity |  |  |  |  |  |  |  | 
RGGRTCYCRRRFCVCVGR-NH2 (ends and bridges not checked) [[^5 T]PG-1] | 101.3 | decreased hemolytic activity | 2 | 8 | 0.3 | 8 | 10 | 1.6 |  | 
WTCYCOOOFCVCV-NH2 (WTCYC[code O][code O][code O]FCVCV-NH2; cysteine pairing not given here; reading uncertain; also: printed as WTCYCOOOFCVCV-NH2) |  |  | 1 | 16 | 0.25 | 1.6 | 4 | 2 |  | 
XTXLCYCXXXFCTCV-NH2 ([Dbu]T[Dbu]LCYC[Dbu][Dbu][Dbu]FCTCV-NH2; not fully specified (N-terminus); cysteine pairing not given here) [*XTXLCYCXXXFCTCV-NH2] |  |  | 1.3 | 16 | 1 | 8 |  |  |  | 

— patent publication US6043220A, “Threonine-containing protegrins” (IntraBiotics Pharmaceuticals, Inc., priority 1997, dated 2000)
